# Source: PMC7312375, “A Novel, Pan-PDE Inhibitor Exerts Anti-Fibrotic Effects in Human Lung Fibroblasts via Inhibition of TGF-β Signaling and Activation of cAMP/PKA Signaling” (International Journal of Molecular Sciences, 2020)
# Legend:
# [1] = target: T1, TRPA1 (Homo sapiens, UniProt O75762); test: TRPA1 antagonist FLIPR assay (functional, HEK293 cell-based)
# T1 construct: host or cells: HEK293
# Experimental: The TRPA1 agonist and antagonist fluorescent imaging plate reader (FLIPR) Assay (functional, HEK293 cell-based) was performed at Eurofins Panlabs, Inc. (St. Charles, MO, USA). The compounds were prepared in assay buffer to the final dilutions 10 and 50 µM. In each experiment, the respective reference compounds were tested: allyl isothiocyanate (the agonist assay) and ruthenium red (the antagonist assay). The […] assays were conducted on a FLIPR^TETRA instrument where the test compounds, vehicle controls, and reference agonists or antagonists were added to the assay plate after a fluorescence baseline was established. The agonist or antagonist incubation during the assay was for a total of 180 s and was used to assess each compound’s ability to activate or inactivate TRPA1. All plates were subjected to appropriate baseline corrections. Once baseline corrections were processed, maximum fluorescence values were exported, and data was manipulated to calculate percentage activation or percentage inhibition. Results showing activity greater than 25% were considered to represent significant effects of test compounds. Experiments were run three times, […].
# [2] = system: MRC-5 cells; test: FBS-induced MRC-5 proliferation, alamarBlue assay; type: cell-based, human; details: for inhibition at 50 µM: Homo sapiens, MRC5, read-out: inhibition of FBS-induced MRC-5 proliferation rate; for MRC-5 proliferation [% of control]: 48 h with FBS
# Experimental: The normal human lung fibroblast cell line—MRC-5 (ATCC® CCL-171™, Manassas, VA, USA)—was used in the study. Cells were cultured in Eagle’s Minimum Essential Medium (EMEM, ATCC® 30-2003™, Manassas, VA, USA) supplemented with 10% (v/v) fetal bovine serum (FBS; Gibco, Thermo Fisher Scientific, Waltham, MA, USA) and antibiotics mixture (penicillin, streptomycin, amphotericin B; Gibco, Thermo Fisher Scientific, Waltham, MA, USA) (standard culture medium) in standard culture conditions (5% CO2, 37 °C, 95% humidity). Unless otherwise specified, for the experiments, cells were seeded at a final density (5 × 10^3/cm^2) in standard culture medium for 24 h and then cultured in EMEM at reduced serum content (0.5%; v/v) for additional 24 h. TGF-β1 (BD Biosciences, San Jose, CA, USA) was administered at 5 ng/mL concentration in all experiments.
# MRC-5 cell viability was evaluated using CytoTox-ONE™ Homogeneous Membrane Integrity Assay (Promega Corporation, Madison, WI, USA) according to the manufacturer’s protocol. The average fluorescence intensity with an excitation wavelength of 560 nm and an emission wavelength of 590 nm was measured using a microplate reader (SpectraMax® iD3, Molecular Devices, San Jose, CA, USA). Experiments were run three times in duplicates. MRC-5 proliferation was determined using the alamarBlue® assay. Cells were seeded for 24 h in standard culture medium, then serum-starved for an additional three days. Evaluated compounds (1-50 µM) were added 1 h prior FBS (10%, v/v) for an additional 48 h. After incubation, the alamarBlue® reagent (Invitrogen, Life Technologies, Carlsbad, CA, USA), dissolved in Hank’s Balanced Salt Solution (10% v/v; Gibco, Thermo Fisher Scientific, Waltham, MA, USA), was added for 30 min. After the observed color change, the supernatant was transferred to 96-well plates, and the absorbance was measured at 570 and 600 nm. The percent difference in reduction between treated and control cells was calculated according to the manufacturer’s protocol. The experiments were run three times in duplicates.
# [3] = system: MRC-5 cells; test: TGF-β1-induced collagen gel contraction assay; type: cell-based, human; details: 10 µM, 1 h pre-incubation, 6 h TGF-β1; compared to TGF-β1 alone
# Experimental: A collagen cell contraction assay was performed according to manufactures’ instructions (Cell Biolabs, INC., San Diego, CA, USA). Briefly, MRC-5 was harvested and mixed with a collagen solution. After polymerization, collagen gel lattices were cultured for two days, during which mechanical tension develops. Before releasing the stressed matrix, MRC-5 cells were pre-treated with study compounds (10 µM) for 1 h. Then collagen gels were gently released from the sides of the culture dishes and contraction in the presence of study compounds, and TGF-β1 was initiated. The collagen gel size was monitored at various time points and quantified with the Fiji ImageJ Software (National Institutes of Health, Bethesda, MD, USA, version 1.52q). The experiments were run three times.
# [4] = system: TGF-β1-induced MRC-5 cells; test: Immunofluorescence count of α-SMA positive myofibroblasts; type: cell-based, human; details: 10 µM, 48 h TGF-β1 5 ng/mL
# Experimental: For immunocytochemical labeling, MRC-5 cells were seeded on glass coverslips. Study compounds (10 µM) were added 1 h before TGF-β1 treatment, and analysis was performed after 1 h (p-Smad-2 and p-CREB detection) or 48 h (α-SMA detection) of incubation. Cells were fixed in methanol or 4% formaldehyde solution, permeabilized in 0.2% or 0.1% Triton X-100 solution (for p-Smad-2 and p-CREB or α-SMA, respectively). After incubation in blocking solution the following primary antibodies: rabbit polyclonal, anti-phospho-Smad-2 (Ser465, Ser467) antibody (#44-244G, Thermo Fisher Scientific, Waltham, MA, USA); rabbit polyclonal, anti-phospho-CREB1 (Ser133) antibody (#orb213775, Biorbyt, Cambridge, United Kingdom); mouse monoclonal, anti-α-SMA antibody (#MA5-11547, Thermo Fisher Scientific, Waltham, MA, USA) and secondary antibodies: goat anti-rabbit Alexa Fluor 546 conjugated antibody and goat anti-mouse Alexa Fluor 488 conjugated antibody (#A-11010 and #A-11001, respectively, Invitrogen, Carlsbad, CA, USA) were used. Nuclei were counterstained with Hoechst 33342 dye (Thermo Fisher Scientific, Waltham, MA, USA). Slides were mounted in ProLong™ Glass Antifade Mountant (Invitrogen, Carlsbad, CA, USA) and analyzed using Leica DMiL LED Fluo microscope (for α-SMA and p-CREB visualization, 40× objective) or Leica DMi8 with Thunder Imaging System (for p-Smad-2 visualization, 40× objective), all equipped with LAS-X Software (Leica Microsystems GmbH, Wetzlar, Germany). Experiments were run four times using five randomly selected fields of view, at the same fluorescent time exposure and in a blind-folded manner.
# [5] = system: TGF-β1-induced MRC-5 cells; test: Protein kinase A activity; type: cell-based, human; details: 10 µM 30 min, then TGF-β1 30 min
# Experimental: Protein Kinase A (PKA) activity in MRC-5 cells was determined using a PKA Colorimetric Activity Kit (Invitrogen, Carlsbad, CA, USA) according to the manufacturer’s protocol. MRC-5 cells were seeded in standard culture medium, and after 48 h they were serum-starved for 2 h in HBSS, followed by the addition of study compounds (10 µM) and incubation for 30 min. Finally, TGF-β1 was administered, and the samples were incubated for an additional 30 min. Whole cell lysates were used in the assay. The amount of PKA was normalized to the total protein content in each sample. The experiments were run two times in duplicates.
# T1 sequence (O75762 whole entry, species assumed): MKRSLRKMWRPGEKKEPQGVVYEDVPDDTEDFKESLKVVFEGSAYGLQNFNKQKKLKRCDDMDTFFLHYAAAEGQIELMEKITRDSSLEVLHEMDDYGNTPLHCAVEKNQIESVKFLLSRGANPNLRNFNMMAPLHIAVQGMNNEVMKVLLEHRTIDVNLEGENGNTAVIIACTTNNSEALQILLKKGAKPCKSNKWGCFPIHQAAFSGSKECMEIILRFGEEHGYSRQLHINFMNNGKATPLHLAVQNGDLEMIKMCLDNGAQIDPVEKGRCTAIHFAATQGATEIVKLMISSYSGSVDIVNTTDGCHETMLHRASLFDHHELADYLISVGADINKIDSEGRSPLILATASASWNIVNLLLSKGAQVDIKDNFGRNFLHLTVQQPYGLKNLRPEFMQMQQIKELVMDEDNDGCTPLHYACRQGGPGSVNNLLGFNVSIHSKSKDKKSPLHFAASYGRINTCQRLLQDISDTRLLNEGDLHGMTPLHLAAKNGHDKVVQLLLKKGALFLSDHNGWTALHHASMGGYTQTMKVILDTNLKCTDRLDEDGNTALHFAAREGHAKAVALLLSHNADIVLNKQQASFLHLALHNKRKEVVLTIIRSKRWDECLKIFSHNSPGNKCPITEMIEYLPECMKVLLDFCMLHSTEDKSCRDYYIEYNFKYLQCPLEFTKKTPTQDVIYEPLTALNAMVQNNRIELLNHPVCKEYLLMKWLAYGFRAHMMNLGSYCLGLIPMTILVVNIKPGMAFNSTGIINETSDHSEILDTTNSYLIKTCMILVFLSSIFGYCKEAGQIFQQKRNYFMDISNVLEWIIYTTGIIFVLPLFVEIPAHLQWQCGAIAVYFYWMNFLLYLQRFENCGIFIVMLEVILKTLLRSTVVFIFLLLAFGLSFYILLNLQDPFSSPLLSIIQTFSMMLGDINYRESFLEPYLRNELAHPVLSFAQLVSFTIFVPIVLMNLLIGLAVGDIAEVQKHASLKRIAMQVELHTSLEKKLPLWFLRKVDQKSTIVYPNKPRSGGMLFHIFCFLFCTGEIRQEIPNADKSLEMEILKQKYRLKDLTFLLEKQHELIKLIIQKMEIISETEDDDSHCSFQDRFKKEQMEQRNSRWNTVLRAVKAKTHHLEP
Structure (SMILES),TRPA1 Inhibition (% of control) ([1]; 10 µM),TRPA1 Inhibition (% of control) ([1]; 50 µM),inhibition at 50 µM ([2]; 50 µM) [%],"MRC-5 proliferation [% of control] ([2]; Table S1 (Figure 2B), 1 µM)","MRC-5 proliferation [% of control] ([2]; Table S1 (Figure 2B), 5 µM)","MRC-5 proliferation [% of control] ([2]; Table S1 (Figure 2B), 10 µM)","MRC-5 proliferation [% of control] ([2]; Table S1 (Figure 2B), 15 µM)","MRC-5 proliferation [% of control] ([2]; Table S1 (Figure 2B), 20 µM)","MRC-5 proliferation [% of control] ([2]; Table S1 (Figure 2B), 50 µM)",size of collagen gel lattices (TGF-β1-induced contraction) [3],number of myofibroblasts (MRC-5 with α-SMA-positive stress fibers); fibroblast to myofibroblast transition [4],Protein kinase A activity in TGF-β1-induced fibroblasts [5],"MRC-5 proliferation [% of control] ([2]; Table S2 (Figure 5B), 1 µM)","MRC-5 proliferation [% of control] ([2]; Table S2 (Figure 5B), 5 µM)","MRC-5 proliferation [% of control] ([2]; Table S2 (Figure 5B), 10 µM)","MRC-5 proliferation [% of control] ([2]; Table S2 (Figure 5B), 50 µM)"
"Cn1c(=O)c2c(nc(NCc3ccco3)n2CCCC(=O)NN=Cc2ccc(O)cc2O)n(C)c1=O [Compound 832, N′-(2,4-dihydroxybenzylidene)-4-(8-((furan-2-ylmethyl)amino)-1,3-dimethyl-2,6-dioxo-1,2,3,6-tetrahydro-7H-purin-7-yl)butanehydrazide]",12.4 % of control,8.8 % of control,39,93 % of control,87 % of control,85 % of control,82 % of control,83 % of control,61 % of control,increased only slightly,decreased,slightly lower,–,–,–,–
"COc1nc2c(c(=O)n(C)c(=O)n2C)n1CC(=O)Nc1ccc(C(C)(C)C)cc1 [Compound 869, N-(4-(tert-butyl)phenyl)-2-(8-methoxy-1,3-dimethyl-2,6-dioxo-1,2,3,6-tetrahydro-7H-purin-7-yl)acetamide]",74.9 % of control,98.7 % of control,25,91 % of control,89 % of control,90 % of control,88 % of control,87 % of control,75 % of control,increased only slightly,decreased,no significant change,–,–,–,–
"CC(C)Cn1c(=O)n(C)c(=O)c2[nH]cnc21 [IBMX, 3-isobutyl-1-methyl-3,7-dihydro-1H-purine-2,6-dione, reference compound]",–,–,10,102 % of control,99 % of control,98 % of control,100 % of control,95 % of control,90 % of control,restored the size of collagen gel lattices to that of the untreated control,–,slightly lower,–,–,–,–
"CCCCOc1nc2c(c(=O)n(C)c(=O)n2C)n1CCCC(=O)Nc1cc(C(C)(C)C)ccc1O [Compound 145, 4-(8-butoxy-1,3-dimethyl-2,6-dioxo-1,2,3,6-tetrahydro-7H-purin-7-yl)-N-(5-(tert-butyl)-2-hydroxyphenyl)butanamide]",12.3 % of control,4.8 % of control,58,104 % of control,91 % of control,84 % of control,74 % of control,72 % of control,42 % of control,restored the size of collagen gel lattices to that of the untreated control,the most significant decrease,slightly lower,93 % of control,84 % of control,83 % of control,46 % of control
